Among the data in BindingDB's records for doi:10.1016/j.bmcl.2004.05.021 (University of Alberta, 2004) are IC50 values, retold here.

The target in the assay is Genome polyprotein 3C proteinase (Hepatitis A virus). Nature of the assay: Reversible inhibitory activity against Protease.
One may read the IC50 as the concentration needed to halve the response being measured. Read a low IC50 as higher potency. `CC(=O)N[C@@H](CC(C)C)C(=O)N[C@@H](C)C(=O)N[C@@H](C)C(=O)N[C@@H](CCC(=O)N(C)C)C(=O)Cn1[nH]c(=O)c2ccccc2c1=O` [(S)-4-{(S)-2-[(S)-2-((S)-2-Acetylamino-4-methyl-pentanoylamino)-propionylamino]-propionylamino}-6-(1,4-dioxo-3,4-dihydro-1H-phthalazin-2-yl)-5-oxo-hexanoic acid dimethylamide] had an IC50 of 13000 nM. The compound `CC(=O)N[C@@H](CC(C)C)C(=O)N[C@@H](C)C(=O)N[C@@H](C)C(=O)N[C@@H](C[C@@H]1CCNC1=O)C(=O)Cn1[nH]c(=O)c2c(F)c(F)c(F)c(F)c2c1=O` [(S)-2-Acetylamino-4-methyl-pentanoic acid ((S)-1-{1-[(S)-2-oxo-1-((1S,4S)-2-oxo-pyrrolidin-3-ylmethyl)-3-(5,6,7,8-tetrafluoro-1,4-dioxo-3,4-dihydro-1H-phthalazin-2-yl)-propylcarbamoyl]-ethylcarbamoyl}-ethyl)-amide] returned an IC50 of 2000 nM. The result for `CC(=O)N[C@@H](CC(C)C)C(=O)N[C@@H](C)C(=O)N[C@@H](C)C(=O)N[C@@H](C[C@@H]1CCNC1=O)C(=O)Cn1[nH]c(=O)c2c([N+](=O)[O-])cccc2c1=O` [(S)-2-Acetylamino-4-methyl-pentanoic acid ((S)-1-{1-[(S)-3-(5-nitro-1,4-dioxo-3,4-dihydro-1H-phthalazin-2-yl)-2-oxo-1-((1S,4S)-2-oxo-pyrrolidin-3-ylmethyl)-propylcarbamoyl]-ethylcarbamoyl}-ethyl)-amide] reads 1600 nM.
